Several values for one entry are separate records, joined by “and”; a condition that tells them apart may be missing. Equal values may be shown once.
Test system: SUM149PT spheroids with HUVEC/MSC, viability
Assay: Anticancer human tumor SUM149PT cell line growth inhibition [GQUAD];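 further: spheroids exposed to drugs for seven days before readout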;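 on viability, T/C: percent viability relative to DMSO vehicle control taken as 100%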
Conditions: for viability, T/C: stronger effect = lower value; active means viability on the fitted dose curve at most 10% of control; inactive means the rest
Source text: DNA G-quadruplex Stabilizer Agents in Combinations in Complex Spheroids
A high-throughput screen of multi-cell type tumor spheroids was designed to identify active combinations of DNA G-quadruplex stabilizer agents and targeted small molecules. Complex spheroids include a stromal component modeled by human endothelial cells (HUVEC) and fibroblasts modeled by human mesenchymal stem cells (MSCs). The concentration ranges selected for each drug and investigational agent were based upon clinically achievable concentrations if the clinical Cmax of the agent was known.
Compounds. The drugs and investigational agents: pidnarulex (CX-5461; NSC782164), APTO-253 (NSC789042), BRACO-19 (NSC847499), peposertib (NSC802822), ceralasertib (NSC780249), elimusertib (NSC800525), camonsertib (NSC841442), AZD-1390 (NSC803789), olaparib (NSC753686), talazoparib (NSC767125), ART-558 (NSC835418), sotorasib (NSC818433), MRTX-1133 (NSC836407), SN-38 (NSC673596), topotecan (NSC609699), etoposide (NSC141540), doxorubicin (NSC123127), gemcitabine (NSC613327), 5-fluorouracil (NSC19893), paclitaxel (NSC125973), vemurafenib (NSC761431), panobinostat (NSC761190), R-306465 (JNJ-16241199; NSC773264), adavosertib (NSC754352), TP-3654 (NSC805149), carboplatin (NSC241240), KSQ-4279 (NSC840948), and staurosporine (NSC755774) were obtained from the National Cancer Institute (NCI) Developmental Therapeutics Program Chemical Repository (34). The FDA-approved anticancer drug set is available from the NCI Developmental Therapeutics Program. […] The stock solutions were prepared in dimethyl sulfoxide (DMSO, Sigma-Aldrich, St. Louis, MO, cat. D2650) at 800-fold the tested concentration and stored at -70 degrees C prior to their use. All drugs and investigational agents were tested over a range starting from a high concentration at or near the clinical Cmax and decreasing in half-log increments. If the clinical Cmax for an agent had not been determined, the highest concentration tested was 10 microM.
2.3 Cell Culture. All cells were maintained in an incubator at 37 degrees C and 5% CO2 with 95% humidity. The PDC lines were cultured according to standard operating procedures established by the NCI PDMR. All PDCs were thawed and cultured in Matrigel-coated flasks prepared with a working solution of 1X Ham's F-12 nutrient mix, without supplementation (Invitrogen, cat. 11765054), 100 U/mL penicillin-streptomycin (Invitrogen, cat. 15140122), and 2.5% Matrigel (Corning Inc., cat. 354248) for the first three passages. The 857933-349-R-J2-PDC line was cultured in 6C/Colon 1B media, which includes advanced DMEM/F-12 (Thermo Fisher Scientific, cat. 12634028), 10 mM HEPES (Thermo Fisher Scientific, cat. 15630080), 1X GlutaMAX supplement (Thermo Fisher Scientific, cat. 35050061), 0.1 mg/mL primocin (InvivoGen, cat. ant-pm-2), 10% defined fetal bovine serum, heat inactivated (HyClone Laboratories Inc., cat. SH30070.03HI), 50% L-WRN conditioned media (ATCC, cat. CRL-3276), 1.25 mM N-Acetyl-L-cysteine (Sigma-Aldrich, cat. A9165), 10 mM nicotinamide (Sigma-Aldrich, cat. N0636), 1X B-27 supplement (Thermo Fisher Scientific, cat. 17504044), 1X N-2 supplement (Thermo Fisher Scientific, cat. 17502048), 10 microM Y-27632 dihydrochloride (Tocris Bioscience, cat. 1254), and 50 ng/mL human EGF recombinant protein (Thermo Fisher Scientific, cat. PHG0311). The 485176-168-R4-J1-PDC line was cultured in Panc media, which includes all 6C/Colon 1B media components plus 100 ng/mL human FGF-10 (Thermo Fisher Scientific, cat. 100-26), 500 nM SB-431542 (Selleckchem, cat. S1067), and gastrin (Tocris, cat. 3006).
[…]

[1] = curve of first compound, second compound 0.0316 µM
[2] = curve of first compound, second compound 0.1 µM
[3] = curve of first compound, second compound 0.316 µM
[4] = curve of first compound, second compound 1 µM
[5] = curve of first compound, second compound 3.16 µM
[6] = curve of first compound, second compound 10 µM
[7] = second compound 0.0316 µM, first compound 0.0316 µM
[8] = second compound 0.0316 µM, first compound 0.316 µM
[9] = second compound 0.1 µM, first compound 0.0316 µM
[10] = second compound 0.1 µM, first compound 0.316 µM
[11] = second compound 0.316 µM, first compound 0.0316 µM
[12] = second compound 0.316 µM, first compound 0.316 µM
[13] = second compound 1 µM, first compound 0.0316 µM
[14] = second compound 1 µM, first compound 0.316 µM
[15] = second compound 3.16 µM, first compound 0.0316 µM
[16] = second compound 3.16 µM, first compound 0.316 µM
[17] = second compound 10 µM, first compound 0.0316 µM
[18] = second compound 10 µM, first compound 0.316 µM

CC1COCCN1c1cc(-c2ccnn2C)c2ccnc(-c3ccn[nH]3)c2n1 (stereo not drawn)
inactive: viability, T/C (compound 0.0316 µM) 98.3% and 92.2% and 83.5% | viability, T/C (compound 0.1 µM) 55.4% and 45.4% and 34.2% | viability, T/C (compound 0.316 µM) 26% and 26.5% and 18% | viability, T/C (compound 1 µM) 19.7% and 28.9% and 18.2% | viability, T/C (compound 3.16 µM) 25.6% and 25.3% and 21.7% | viability, T/C (compound 10 µM) 30% and 31.4% and 23.9%
124 nM and 89.3 nM and 69.2 nM: IC50 (curve of compound)

COc1cc(C2c3cc4c(cc3C(OC3OC5COC(C)OC5C(O)C3O)C3COC(=O)C23)OCO4)cc(OC)c1O (stereo not drawn)
inactive: viability, T/C (compound 0.0316 µM) 99.6% and 98.6% and 97.5% | viability, T/C (compound 0.1 µM) 88.2% and 81.7% (2×) | viability, T/C (compound 0.316 µM) 55.6% and 52.5% and 61.4% | viability, T/C (compound 1 µM) 49.3% and 48.9% and 58.8% | viability, T/C (compound 3.16 µM) 36% and 29.3% and 42.2% | viability, T/C (compound 10 µM) 18.6% and 14.3% and 22%
837 nM and 645 nM and 1340 nM: IC50 (curve of compound)

CC(C)(O)C1CCC(Nc2ccc3ncc(-c4cccc(C(F)(F)F)c4)n3n2)CC1 (stereo not drawn)
inactive: viability, T/C (compound 0.0316 µM) 98.3% and 102% and 86% | viability, T/C (compound 0.1 µM) 86.1% and 89.2% and 65.1% | viability, T/C (compound 0.316 µM) 76.1% and 82.5% and 72.4% | viability, T/C (compound 1 µM) 63.5% and 63.8% and 49.3% | viability, T/C (compound 3.16 µM) 47.9% and 49% and 37.8% | viability, T/C (compound 10 µM) 61.8% and 58% and 41.8%
> 10000 nM and 1170 nM: IC50 (curve of compound)

O=c1[nH]cc(F)c(=O)[nH]1 + CN(C)c1ccc(Nc2c3ccc(NC(=O)CCN4CCCC4)cc3nc3cc(NC(=O)CCN4CCCC4)ccc23)cc1
8350 nM: IC50 [3]
4530 nM: IC50 [6]
8640 nM: IC50 [4]
6640 nM: IC50 [5]
8990 nM: IC50 [1]
inactive: viability, T/C [7] 105% | viability, T/C (second compound 0.0316 µM, first compound 0.1 µM) 93.2% | viability, T/C [8] 99.2% | viability, T/C (second compound 0.0316 µM, first compound 1 µM) 98.8% | viability, T/C (second compound 0.0316 µM, first compound 3.16 µM) 63.5% | viability, T/C (second compound 0.0316 µM, first compound 10 µM) 48.6% | viability, T/C [9] 100% | viability, T/C (second compound 0.1 µM, first compound 0.1 µM) 92% | viability, T/C [10] 94.4% | viability, T/C (second compound 0.1 µM, first compound 1 µM) 99.3% | viability, T/C (second compound 0.1 µM, first compound 3.16 µM) 61.5% | viability, T/C (second compound 0.1 µM, first compound 10 µM) 57.3% | viability, T/C [11] 86.5% | viability, T/C (second compound 0.316 µM, first compound 0.1 µM) 93.3% | viability, T/C [12] 86.5% | viability, T/C (second compound 0.316 µM, first compound 1 µM) 89.5% | viability, T/C (second compound 0.316 µM, first compound 3.16 µM) 70% | viability, T/C (second compound 0.316 µM, first compound 10 µM) 46.2% | viability, T/C [13] 83.5% | viability, T/C (second compound 1 µM, first compound 0.1 µM) 91.6% | viability, T/C [14] 94.8% | viability, T/C (second compound 1 µM, first compound 1 µM) 99.4% | viability, T/C (second compound 1 µM, first compound 3.16 µM) 68.8% | viability, T/C (second compound 1 µM, first compound 10 µM) 47.2% | viability, T/C [15] 81.5% | viability, T/C (second compound 3.16 µM, first compound 0.1 µM) 80% | viability, T/C [16] 82.8% | viability, T/C (second compound 3.16 µM, first compound 1 µM) 92.5% | viability, T/C (second compound 3.16 µM, first compound 3.16 µM) 60% | viability, T/C (second compound 3.16 µM, first compound 10 µM) 44.5% | viability, T/C [17] 80.6% | viability, T/C (second compound 10 µM, first compound 0.1 µM) 80.9% | viability, T/C [18] 91.2% | viability, T/C (second compound 10 µM, first compound 1 µM) 94% | viability, T/C (second compound 10 µM, first compound 3.16 µM) 52.5% | viability, T/C (second compound 10 µM, first compound 10 µM) 44.3%
> 10000 nM: IC50 [2]

C=CC(=O)N1CCN(c2nc(=O)n(-c3c(C)ccnc3C(C)C)c3nc(-c4c(O)cccc4F)c(F)cc23)C(C)C1 (stereo not drawn)
inactive: viability, T/C (compound 0.0316 µM) 96.6% and 99.6% and 101% | viability, T/C (compound 0.1 µM) 94.5% and 96.4% and 104% | viability, T/C (compound 0.316 µM) 114% and 106% and 105% | viability, T/C (compound 1 µM) 111% and 110% (2×) | viability, T/C (compound 3.16 µM) 120% and 113% and 117% | viability, T/C (compound 10 µM) 109% and 101% and 114%
> 10000 nM: IC50 (curve of compound)

Cc1[nH]c2ccc(F)cc2c1-c1nc2c3cccnc3c3ncccc3c2[nH]1
inactive: viability, T/C (compound 0.1 µM) 102% [middle of 12 runs] | viability, T/C (compound 0.316 µM) 104% [middle of 12 runs] | viability, T/C (compound 1 µM) 99% [middle of 12 runs] | viability, T/C (compound 10 µM) 98.4% [middle of 12 runs]
> 10000 nM: IC50 (compound alone, run of 03/18/2024) | IC50 (compound alone, run of 03/26/2024)

Cc1[nH]c2ccccc2c1CCNCc1ccc(/C=C/C(=O)NO)cc1 + Cc1[nH]c2ccc(F)cc2c1-c1nc2c3cccnc3c3ncccc3c2[nH]1
inactive: viability, T/C (second compound 0.0316 µM, first compound 0.000999 µM) 98% | viability, T/C (second compound 0.0316 µM, first compound 0.00316 µM) 99.6% | viability, T/C (second compound 0.0316 µM, first compound 0.00999 µM) 103% | viability, T/C [7] 102% | viability, T/C (second compound 0.0316 µM, first compound 0.0999 µM) 98% | viability, T/C [8] 40.3% | viability, T/C (second compound 0.1 µM, first compound 0.000999 µM) 101% | viability, T/C (second compound 0.1 µM, first compound 0.00316 µM) 97.5% | viability, T/C (second compound 0.1 µM, first compound 0.00999 µM) 97.6% | viability, T/C [9] 97.2% | viability, T/C (second compound 0.1 µM, first compound 0.0999 µM) 90.6% | viability, T/C [10] 50.3% | viability, T/C (second compound 0.316 µM, first compound 0.000999 µM) 108% | viability, T/C (second compound 0.316 µM, first compound 0.00316 µM) 107% | viability, T/C (second compound 0.316 µM, first compound 0.00999 µM) 98% | viability, T/C [11] 106% | viability, T/C (second compound 0.316 µM, first compound 0.0999 µM) 87.6% | viability, T/C [12] 47.8% | viability, T/C (second compound 1 µM, first compound 0.000999 µM) 106% | viability, T/C (second compound 1 µM, first compound 0.00316 µM) 96.6% | viability, T/C (second compound 1 µM, first compound 0.00999 µM) 93.6% | viability, T/C [13] 105% | viability, T/C (second compound 1 µM, first compound 0.0999 µM) 97.4% | viability, T/C [14] 48.3% | viability, T/C (second compound 3.16 µM, first compound 0.000999 µM) 96.8% | viability, T/C (second compound 3.16 µM, first compound 0.00316 µM) 89.4% | viability, T/C (second compound 3.16 µM, first compound 0.00999 µM) 81.4% | viability, T/C [15] 93.3% | viability, T/C (second compound 3.16 µM, first compound 0.0999 µM) 89.4% | viability, T/C [16] 49.1% | viability, T/C (second compound 10 µM, first compound 0.000999 µM) 99.1% | viability, T/C (second compound 10 µM, first compound 0.00316 µM) 88% | viability, T/C (second compound 10 µM, first compound 0.00999 µM) 89.4% | viability, T/C [17] 88.5% | viability, T/C (second compound 10 µM, first compound 0.0999 µM) 82.2% | viability, T/C [18] 41.4%
308 nM: IC50 [5]
304 nM: IC50 [4]
260 nM: IC50 [1]
299 nM: IC50 [3]
> 316 nM: IC50 [2]
250 nM: IC50 [6]
